Reference: patent EP3415164A1, “COMPOSITION COMPRISING A SPECIFIC P38A INHIBITOR AND AN AGENT THAT INDUCES CHROMOSOME INSTABILITY AND MEDICAL USES THEREOF” (Fundació Institut de Recerca Biomèdica (IRB Barcelona), priority 2017, dated 2018)

Columns and labels:
[1] = test system: PyMT-induced mammary tumours; assay: Growth, DNA damage and mitotic figures of PyMT-induced mammary tumours in treated mice; format: in vivo; details: for effect on tumour growth: taxane administered alone, 20 mg/kg once a week for three weeks
Procedure: Mouse experiments. PyMT p38αlox/lox UbCre female mice were generated by crossing p38αlox/lox mice (Ventura et al., 2007) with MMTV-PyMT, provided by William Muller (McGill University, Canada) and UbiquitinC-Cre-ERT2 mice (Ruzankina et al., 2007), being all mostly in FVB background. Mouse genotyping was performed by PCR using genomic tail DNA. Primers and conditions are available upon request. Mice were housed according to national and European Union regulations, and protocols were approved by the animal care and use committee of the Barcelona Science Park (PCB-CEEA). […] For p38α deletion, 4OHT (Sigma, H6278) was dissolved in 10% ethanol/90% corn oil (Sigma, C8267) and mice were injected intraperitoneally with 1 mg each day for five consecutive days. For chemotherapeutic treatments, mice were injected once a week with 20 mg/kg of docetaxel (Accord, 691719.0) or 20 mg/kg paclitaxel (Accord, 676253.0), for three consecutive weeks. […] Histology and immunohistochemistry. Tumours dissected from mice were fixed overnight in 10%-buffered formalin (Sigma, HT501128) and embedded in paraffin. Sections (5 µm-thick) were stained with hematoxylin and eosin (H&E). Specific antibodies were used for the following stainings: Ki67 (Novacastra, NCL), phospho-H3 (Millipore, 06-570), γ-H2AX (Millipore, 05-636). […] Apoptosis was detected by TUNEL using the "In situ Cell Death Detection Kit, Fluorescein" (Roche, 11684795910), following the manufacturer's instructions.

[2] = test system: breast tumour patient-derived xenografts (PDXs); assay: Breast tumour patient-derived xenografts (PDXs) treated with taxanes and PH797804; format: in vivo
[3] = PH797804 in combination with paclitaxel or docetaxel
[4] = combination therapy versus single treatments, around day 15, responding PDXs (TN1, TN2, Lum1, Lum2)

| Structure (SMILES) | tumour size ([1]; PH797804 15 mg/kg daily by oral gavage in combination with paclitaxel or docetaxel) | DNA damage (γ-H2AX staining) [1, 3] | missegregation events (phospho-H3 staining) [1, 3] | aneuploidy (FISH, chromosome 17 centromeric probe) ([2]; PH797804 with paclitaxel versus paclitaxel) | detrimental outcome induced by p38α inhibition ([2]; all nine PDXs) | anti-tumour response ([2]; co-administration with paclitaxel or docetaxel versus taxane alone, most cases (seven of nine PDXs)) | anti-tumour response ([2]; co-administration with taxane, PDX models TN5 and Lum4) | missegregation events [2, 4] | γ-H2AX staining [2, 4] | effect on tumour growth ([2]; p38α inhibition (PH797804) alone, 15 mg/kg daily oral, most PDX models) | effect on tumour growth [1] |
| --- | --- | --- | --- | --- | --- | --- | --- | --- | --- | --- | --- |
| CNC(=O)c1ccc(C)c(-n2c(C)cc(OCc3ccc(F)cc3F)c(Br)c2=O)c1 [PH797804] | substantial reduction of tumour size | increased levels of DNA damage | higher number of missegregation events | usually enhanced the aneuploidy induced by paclitaxel | never observed increased tumour growth or any other detrimental outcome | enhanced, accelerated or prolonged the anti-tumour response observed with the taxane alone | no additional benefit was observed | increased percentage of missegregation events | increased γ-H2AX staining | mild effect on tumour growth | – |
| CC(=O)O[C@@]12CO[C@@H]1C[C@H](O)[C@@]1(C)C(=O)[C@H](O)C3=C(C)[C@@H](OC(=O)[C@H](O)[C@@H](NC(=O)OC(C)(C)C)c4ccccc4)C[C@@](O)([C@@H](OC(=O)c4ccccc4)[C@H]21)C3(C)C [docetaxel] | – | – | – | – | – | – | – | – | – | – | only exerted a cytostatic effect on tumour growth |
| CC(=O)O[C@H]1C(=O)[C@@]2(C)[C@H]([C@H](OC(=O)c3ccccc3)[C@]3(O)C[C@H](OC(=O)[C@H](O)[C@@H](NC(=O)c4ccccc4)c4ccccc4)C(C)=C1C3(C)C)[C@]1(OC(C)=O)CO[C@@H]1C[C@@H]2O [paclitaxel] | – | – | – | – | – | – | – | – | – | – | only exerted a cytostatic effect on tumour growth |
